Key:
physchem = settings: octanol/water
[1] = PAMPA, 7 h
Zone of skin = settings: human
[2] = octanol/water

Structure (SMILES) | logP (physchem) | log Kp (Zone of skin) | other results
C[C@H]1C[C@H]2[C@@H]3CCC4=CC(=O)C=C[C@]4(C)[C@@]3(F)[C@@H](O)C[C@]2(C)[C@@]1(O)C(=O)CO [BETAMETHASONE] | 2.01 |  | 
O=C(O)CCCCc1ccccc1 [5-PHENYLVALERIC ACID] | 2.85 |  | 
Nc1ccc(S(=O)(=O)Nc2ncccn2)cc1 [SULFADIAZINE] | -0.12 |  | log Pe [1]: -6.2
Oc1ccc(Cl)cc1 [PARACHLOROPHENOL] |  | -5 | 
O=C(O)c1ccccc1 [BENZOIC ACID] |  | -5.08 | 
O=[N+]([O-])c1ccc(O)cc1 [P-NITROPHENOL] |  | -5.81 | 
Oc1ccc2ccccc2c1 [BETANAPHTHOL] |  | -5.11 | log Pe [1]: -4.19
c1ccc2cnccc2c1 [ISOQUINOLINE] |  | -5.33 | 
O=C(O)Cc1ccccc1Nc1c(Cl)cccc1Cl [DICLOFENAC] |  | -5.3 | 
Cn1c(=O)c2c(ncn2C)n(C)c1=O [CAFFEINE] |  | -7.56 | log Pe [1]: -5.63
CCC1(c2ccccc2)C(=O)NC(=O)NC1=O [PHENOBARBITAL] |  | -6.9 | 
Oc1ccccc1 [PHENOL] |  | -5.64 | log Pe [1]: -4.14
CN[C@@H](C)[C@H](O)c1ccccc1 [EPHEDRINE] |  | -5.75 | 
c1ccncc1 [PYRIDINE] |  |  | log Pe [1]: -4.35
O=C(OCc1ccccc1)c1cccnc1 [BENZYL NICOTINATE] |  | -5.35 | 
CC(C)NCC(O)COc1cccc2ccccc12 (centres undefined) [PROPRANOLOL] |  |  | log Pe [1]: -4.25
O=C(O)c1ccccc1O [SALYCILIC ACID] |  |  | log Pe [1]: -4.16

Structure (SMILES) | logP (physchem) | log Kp (Zone of skin) | other results
C[C@]12CCC(=O)C=C1CC[C@@H]1[C@@H]2CC[C@@]2(C)[C@H]1CC[C@@]21CCC(=O)O1 [SPRIOLACTONE] | 2.26 |  | 
CC(=O)[C@H]1CC[C@H]2[C@@H]3CCC4=CC(=O)CC[C@]4(C)[C@H]3CC[C@]12C [PROGESTERONE] |  | -5.08 | log Pe [1]: -4.56
Cc1cc(=O)n(-c2ccccc2)n1C [ANTIPYRINE] |  | -7.74 | 
CC(C(=O)O)c1cccc(C(=O)c2ccccc2)c1 (centres undefined) [KETOPROFEN] |  | -4.7 | 
CCc1ccc(O)cc1 | 2.47 | -5.01 | 
NC(=O)NS(=O)(=O)c1ccc(N)cc1 [SULFACARBAMIDE] | -1.1 |  | 
Nc1cc([N+](=O)[O-])ccc1O [2-AMINO-4-NITROPHENOL] |  | -6.62 | 
COC(=O)c1cccnc1 [METHYL NICOTINATE] | 0.87 | -6.04 | 
COc1ccc2c(c1)c(CC(=O)O)c(C)n2C(=O)c1ccc(Cl)cc1 [INDOMETHACIN] |  | -5.39 | logP [2]: 4.27
C/C=C(/C(=C/C)c1ccc(O)cc1)c1ccc(O)cc1 [DIENESTROL] | 4.5 |  | 
CCNc1nc(Cl)nc(NC(C)C)n1 [ATRAZINE] |  | -5.56 | 
Cc1ccccc1O [ORTHOCRESOL] | 1.94 | -5.36 | 
CN1CCC[C@H]1c1cccnc1 [NICOTINE] |  | -5.26 | log Pe [1]: -4.58
CN1C(C(=O)Nc2ccccn2)=C(O)c2ccccc2S1(=O)=O [PIROXICAM] |  | -6.02 | 
Nc1ccc(S(=O)(=O)NC(=O)c2ccccc2)cc1 [SULFABENZAMIDE] | 1.46 |  | 
CC(C(=O)O)c1ccc(-c2ccccc2)c(F)c1 (centres undefined) [FLURBIPROFEN] | 3.99 |  | 
Cc1ccc(C(C)C)c(O)c1 [THYMOL] |  | -4.83 | 

Source: ChEMBL document CHEMBL1140614, “In silico and in vitro filters for the fast estimation of skin permeation and distribution of new chemical entities” (J Med Chem, 2007)
